This is an account of results in ChEMBL document CHEMBL4219088, “Novel 4-aminoquinazoline derivatives induce growth inhibition, cell cycle arrest and apoptosis via PI3Kα inhibition” (Bioorg Med Chem, 2018).

Type in all cases: functional, cell-based
The subject of one assay is SNU-638. Description: Antiproliferative activity against human SNU638 cells after 72 hrs by sulforhodamine B assay. To be noted: SNU-638, 72 h. On the technique in general: Sulforhodamine B stains cellular protein and so reports cell mass.
For the next assay, the system named is MDA-MB-231. Description: Antiproliferative activity against human MDA-MB-231 cells after 72 hrs by sulforhodamine B assay. To be noted: MDA-MB-231, 72 h.
In a further assay the test system is SK-HEP1. Description: Antiproliferative activity against human SKHEP1 cells after 72 hrs by sulforhodamine B assay. To be noted: SK-HEP1, 72 h.
In another assay the test system is A549. The experiment in a line: Antiproliferative activity against human A549 cells after 72 hrs by sulforhodamine B assay. To be noted: A549, 72 h.
The next assay has as its system HCT-116. Description: Antiproliferative activity against human HCT116 cells after 72 hrs by sulforhodamine B assay. To be noted: HCT-116, 72 h.
A further assay deals with MCF7. The experiment in a line: Antiproliferative activity against human MCF7 cells after 72 hrs by sulforhodamine B assay. To be noted: MCF7, 72 h.

Molecules are shown by their SMILES.

For `COc1ncc(-c2ccc3ncnc(NCc4ccncc4)c3c2)cc1NS(=O)(=O)c1ccc(F)cc1F`, the IC50 with SNU-638 came out at 6210 nM; with MDA-MB-231 it was 9710 nM; in the assay with SK-HEP1, 12.4 µM; with A549, 11.4 µM; in the assay on HCT-116, 17600 nM; in the assay with MCF7, 22.5 µM.

Consider `COc1ncc(-c2ccc3ncnc(NCCN(C)C)c3c2)cc1NS(C)(=O)=O`, for which the IC50 worked out at 410 nM in the assay with SNU-638; 2320 nM in the assay with MDA-MB-231; 12.6 µM in the assay with SK-HEP1; 4.12 µM in the assay on A549; 13500 nM in the assay on HCT-116; 14.7 µM in the assay with MCF7.

For `COc1ncc(-c2ccc3ncnc(NCCN(C)C)c3c2)cc1NS(=O)(=O)c1ccc(F)cc1`, the IC50 in the assay with SNU-638 was determined as 1210 nM; in the assay with MDA-MB-231, 1220 nM; in the assay on SK-HEP1, 9.5 µM; in the assay on A549, 2.42 µM; in the assay with HCT-116 it was 3200 nM; in the assay on MCF7, 1.23 µM.

Take `COc1ncc(-c2ccc3ncnc(NCCN4CCOCC4)c3c2)cc1NS(=O)(=O)c1ccc(F)cc1F`: the IC50 in the assay on SNU-638 came to 3960 nM; in the assay on MDA-MB-231, 380 nM; with SK-HEP1, 0.84 µM; in the assay with A549 it was 0.62 µM; with HCT-116, 2740 nM; with MCF7, 28.9 µM.

Turning to `COc1ncc(-c2ccc3ncnc(NCCCN4CCOCC4)c3c2)cc1NS(=O)(=O)c1ccc(F)cc1F`, the IC50 in the assay with SNU-638 came out at 4520 nM; in the assay on MDA-MB-231, 8960 nM; with SK-HEP1 it was 13.4 µM; in the assay with A549 it was 9.82 µM; in the assay on HCT-116 it was 18800 nM; in the assay on MCF7, 13.5 µM.

Turning to `CCCCS(=O)(=O)Nc1cc(-c2ccc3ncnc(NCc4ccncc4)c3c2)cnc1OC`, the IC50 in the assay on SNU-638 worked out at 6660 nM; in the assay with MDA-MB-231, 4320 nM; with SK-HEP1, 8.98 µM; with A549, 9.42 µM; with HCT-116, 5720 nM; with MCF7 it was 18.7 µM.

For `CCCCS(=O)(=O)Nc1cc(-c2ccc3ncnc(NCCN4CCOCC4)c3c2)cnc1OC`, the IC50 was 610 nM in the assay on SNU-638; 420 nM with MDA-MB-231; 0.44 µM in the assay on SK-HEP1; 1.56 µM in the assay on A549; 590 nM in the assay on HCT-116; 10.8 µM with MCF7.

For `COc1ncc(-c2ccc3ncnc(NCCCN(C)C)c3c2)cc1NS(=O)(=O)c1ccc(F)cc1F`, the IC50 with SNU-638 is 1260 nM; in the assay on MDA-MB-231 it was 1540 nM; in the assay on SK-HEP1, 4.68 µM; with A549 it was 2.78 µM; with HCT-116, 2200 nM; with MCF7 it was 3.66 µM.

Regarding `COc1ncc(-c2ccc3ncnc(NCCN(C)C)c3c2)cc1NS(=O)(=O)c1ccc(F)cc1F`, the IC50 with SNU-638 came out at 620 nM; with MDA-MB-231 it was 710 nM; with SK-HEP1, 4.72 µM; in the assay with A549, 0.94 µM; in the assay on HCT-116, 1440 nM; in the assay on MCF7, 1.02 µM.

For the compound `CCCCS(=O)(=O)Nc1cc(-c2ccc3ncnc(NCCCN4CCOCC4)c3c2)cnc1OC`, the IC50 in the assay with SNU-638 was 980 nM; with MDA-MB-231, 2580 nM; with SK-HEP1, 1.14 µM; in the assay on A549, 3.14 µM; in the assay with HCT-116 it was 1740 nM; in the assay on MCF7 it was 4.59 µM.

In turn, `Cn1c(=O)n(-c2ccc(C(C)(C)C#N)cc2)c2c3cc(-c4cnc5ccccc5c4)ccc3ncc21` [DACTOLISIB] yielded an IC50 in the assay on MDA-MB-231 of 180 nM.

As for `CCCCS(=O)(=O)Nc1cc(-c2ccc3ncnc(NCCCN(C)C)c3c2)cnc1OC`, the IC50 in the assay with SNU-638 came out at 1260 nM; in the assay with MDA-MB-231, 880 nM; with SK-HEP1 it was 0.86 µM; in the assay with A549, 3.52 µM; in the assay with HCT-116, 490 nM; with MCF7, 4.73 µM.

For orientation: IC50 means the point on the concentration scale where inhibition reaches its midpoint. Higher therefore signals lower potency.
